Test results taken from publication PMC10568017, “A quest for the stereo-electronic requirements for selective agonism for the neurotrophin receptors TrkA and TrkB in 17-spirocyclic-dehydroepiandrosterone derivatives” (Frontiers in Molecular Neuroscience, 2023).

Tests used:
[1] = target: T1, CYP2C9 (Homo sapiens, UniProt P11712); experiment: Isozyme-specific CYP450 inhibition, CYP2C9; type: in vitro ADME; details: 1 μM, 60 min, recombinant human CYP450 (Baculosomes)
T1 construct: purchased Thermo Fisher Scientific; host or cells: Baculosomes
T1 sequence (P11712 whole entry): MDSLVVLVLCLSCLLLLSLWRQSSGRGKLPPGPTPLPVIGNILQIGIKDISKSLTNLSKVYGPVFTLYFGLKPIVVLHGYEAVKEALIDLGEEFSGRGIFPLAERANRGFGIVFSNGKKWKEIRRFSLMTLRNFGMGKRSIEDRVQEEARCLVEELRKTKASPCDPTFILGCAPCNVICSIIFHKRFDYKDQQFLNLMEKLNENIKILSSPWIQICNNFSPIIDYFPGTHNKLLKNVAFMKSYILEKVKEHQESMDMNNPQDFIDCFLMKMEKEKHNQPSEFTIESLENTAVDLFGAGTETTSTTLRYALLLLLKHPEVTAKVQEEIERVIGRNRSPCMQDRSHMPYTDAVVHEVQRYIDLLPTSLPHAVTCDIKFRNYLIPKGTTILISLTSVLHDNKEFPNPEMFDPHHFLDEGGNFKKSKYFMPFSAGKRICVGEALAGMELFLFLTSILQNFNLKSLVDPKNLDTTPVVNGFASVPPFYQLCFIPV
Experimental: Human cytochrome P450 (CYP450) isoenzymes were expressed in Baculosomes®, purchased from Thermo Fisher Scientific (Waltham, MA, USA). All reagents were handled and prepared according to the manufacturer's protocol. Test compounds were assessed at 1 μM for their effects on CYP1A2, CYP2A6, CYP2C9, CYP2C19, CYP2D6, and CYP3A4. Approximately 1 μM was selected based on our ADMET standard operating procedures and protocols also published previously (Rogdakis et al., [2022]; Yilmaz et al., [2022]). CYP450-enzymatic activity was determined based on the kinetic model for each CYP450 isoform (Cohen et al., [2003]; Veith et al., [2009]). Reactions took place in triplicates at 20°C. For this, NADP^+ (10 mM in 100 mM potassium phosphate, pH 8.0) was converted into NADPH by the regeneration system present (glucose-6-phosphate at 333 mM and glucose-6-phosphate-dehydrogenase at 30 U/mL in 100 mM potassium phosphate, pH 8.0). Following the addition of the fluorescent substrate, signal monitoring over time took place immediately (<2 min) at suitable excitation and emission wavelengths (Agilent BioTek Lionheart FX). CYP450 inhibition (%) was determined based on the reaction rates (fluorescence intensity changes per unit time). In total, n = 60 measurements […] were acquired (t = 60 min).
% Inhibition=(1-X/A)×100%
X is the rate observed in the presence of the test compound.
A is the rate observed in the presence of the negative (solvent, DMSO) control.

[2] = tested on: NIH-3T3 TrkB-expressing cell line; experiment: CellTox Green cytotoxicity assay in NIH-3T3 cells stable transfected with TrkB under serum deprivation; type: cell-based; details: compound 1 μM, 24 h, after 24 h serum starvation; BDNF 500 ng/mL as control
Experimental: (§1) We tested compounds on three cellular systems, primary cortical astrocytes from 2-day-old mice (as a natively TrkB-expressing neuronal population), and NIH-3T3 fibroblasts stable transfected with TrkB and NIH-3T3 naïve cells. Cells were grown with high-glucose DMEM medium supplemented with 10% fetal bovine serum (FBS), 100 μg/mL streptomycin, and 100 units/mL penicillin at 37°C in a humidified 5% CO2 atmosphere. Phosphorylation results presented here are in primary astrocytes, and cell toxicity assay results are in NIH-3T3 stable transfected cells with TrkB.
NIH-3T3 stable transfected cells with TrkB were plated in 96-well plates at a density of 10,000 cells/well, before carrying out serum starvation for 24 h. Cells were then treated for 24 h with either BDNF at 500 ng/mL (control) or the compounds at 1 μM.
For the cell toxicity assay, we used CellTox™ Green Dye (2,000 × , Promega) for the visualization of dead cells and Hoechst 33,342 solution (10,000 × ) for total cells. A ZEISS Axio Vert.A1 microscope was used for image capture, and the ImageJ software (https://imagej.nih.gov/ij/) was used for analysis. The number of CellTox positive cells was normalized against the total number of cells observed in each image.
The NIH-3T3 TrkB cell line, which is stable and transfected to specifically express the TrkB receptor, was used for the screening of the new compounds for their ability to protect cells from serum deprivation-induced apoptosis through the activation of the TrkB receptor. Cell death was induced by serum deprivation for 24 h and then BDNF (500 ng/mL), the native neurotrophin ligand of the TrkB receptor, or compounds ENT-A007, ENT-A009, ENTA025, ENT-A026, ENT-A033, ENT-A034, ENT-A035, ENT-A036, ENT-A037, ENT-A046, ENT-A047, ENT-A055, and ENT-A056 (1 μM) were added to the media for 24 h.

[3] = target: T2, TrkB (Mus musculus, UniProt P15209); experiment: TrkB phosphorylation assay in primary astrocytes (Western blot); type: cell-based; details: compound 1 μM, 20 min, after 6 h serum starvation, BDNF 500 ng/mL as control
T2 construct: primary cortical astrocytes from 2-day-old mice (as a natively TrkB-expressing neuronal population); endogenous in cells; host or cells: primary cortical astrocytes from C57B/6 mouse pups (P2)
T2 sequence (P15209 32-821): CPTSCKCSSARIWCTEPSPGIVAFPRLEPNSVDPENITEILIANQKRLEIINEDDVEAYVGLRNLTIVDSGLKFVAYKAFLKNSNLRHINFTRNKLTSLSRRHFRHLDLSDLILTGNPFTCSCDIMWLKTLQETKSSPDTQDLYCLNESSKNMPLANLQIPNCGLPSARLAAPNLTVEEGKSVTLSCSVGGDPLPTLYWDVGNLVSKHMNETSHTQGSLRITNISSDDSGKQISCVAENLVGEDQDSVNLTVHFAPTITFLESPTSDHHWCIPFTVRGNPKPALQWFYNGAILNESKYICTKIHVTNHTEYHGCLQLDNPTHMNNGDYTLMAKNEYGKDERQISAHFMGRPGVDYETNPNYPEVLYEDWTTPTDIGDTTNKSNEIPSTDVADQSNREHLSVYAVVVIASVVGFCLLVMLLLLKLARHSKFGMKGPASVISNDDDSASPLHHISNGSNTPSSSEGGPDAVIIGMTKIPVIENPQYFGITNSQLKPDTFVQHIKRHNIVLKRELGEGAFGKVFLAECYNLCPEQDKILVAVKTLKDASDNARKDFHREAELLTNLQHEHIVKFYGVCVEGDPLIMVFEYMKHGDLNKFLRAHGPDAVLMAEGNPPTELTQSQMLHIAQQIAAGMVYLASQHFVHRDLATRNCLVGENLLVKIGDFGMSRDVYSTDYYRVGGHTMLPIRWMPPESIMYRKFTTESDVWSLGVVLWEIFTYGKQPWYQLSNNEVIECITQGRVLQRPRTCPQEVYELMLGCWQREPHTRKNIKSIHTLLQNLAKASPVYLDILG
Experimental: as §1
Cells were plated in 12 well plates, at a density of 100,000 cells per well, with 6 h of serum deprivation carried out on the following day. To assess the effect of compounds on TrkB phosphorylation, 20-min treatments were applied, using either BDNF at 500 ng/mL (Peprotech 450-02) (positive control) or compounds at 1 μM.
Cell lysis for 10 min was carried out on ice using the Pierce IP Lysis Buffer by Thermo Scientific and a phospho-protease inhibitor cocktail by Millipore. After adding loading buffer (5 × Laemni), 25 μg from each protein sample were incubated for 5 min at 95°C and subjected to SDS-PAGE. Proteins were transferred to a nitrocellulose membrane at 350 mA for 2 h. Membrane blocking was performed using 5% bovine serum albumin (BSA) at room temperature for 1 h, before adding the primary antibodies to the blocking solution at 4°C overnight. HRP-conjugated secondary antibodies were used for the detection of chemiluminescence with ECL solution. Primary antibodies: Phospho-TrkB (Tyr816) Millipore # ABN1381, and Anti-TrkB Abcam #ab33655.
Mixed glial cultures were isolated from the cortex of C57B/6 pups at post-natal day 2 (P2). Cells were plated in a medium containing high-glucose DMEM, 200 U/mL penicillin, 200 μg/mL streptomycin, and 10% fetal bovine serum (FBS). When cells reach 100% confluency (7–8 days), the anti-mitotic agent Ara-C was added in the media at a final concentration of 10 μM, for 3 to 4 days to target the highly proliferative microglial cells. Ara-C was removed, and primary astrocytes (97% purity) were cultured at 5% CO2 and 37°C.
Cells were plated at 70–80% confluency. The next day, they were deprived of serum for 6 h and subsequently treated with 500 ng/mL BDNF or 1 μM of compounds for 20 min. Cells were then lysed in Pierce™ IP Lysis Buffer (87788, Thermo Fischer Scientific, Rockford, USA), containing proteases (539138, Calbiochem, Darmstadt, Germany), and phosphatase inhibitors (524629, Calbiochem, Darmstadt, Germany). Lysates were then suspended in an SDS loading buffer and subjected to Western blot against phosphorylated TrkB (1:1,000, ABN1381, Sigma-Aldrich, St. Louis, MO, USA) and total TrkB (1:1,000, 07-225-I, Sigma-Aldrich, St. Louis, MO, USA).

[4] = tested on: Erk1/2; experiment: Erk1/2 phosphorylation in PC12 cells (Western blot); type: cell-based; details: compound 500 nM, 30 min, NGF 100 ng/mL as control
[5] = Metabolic stability in pooled human liver microsomes; type: in vitro ADME; details: 1 μM
Experimental: For metabolic stability assessment, pooled human liver microsomes were employed at 0.5 mg/mL. Incubation conditions were optimized to ensure linear metabolite formation with respect to protein concentration and reaction time. All test compounds were assessed at 1 μM based on our ADMET standard operating procedures and protocols, also published previously (1 μM was selected based on our ADMET standard operating procedures and protocols also published previously) (Rogdakis et al., [2022]; Yilmaz et al., [2022]). Approximately 1 mM of NADPH served as a cofactor. Reactions took place in triplicates at 37°C. Negative and positive controls (low vs. rapid clearance) were included for low vs. rapid clearance. After 60 min, reactions were terminated.
Parent structure loss is classified as very slow (<5%), slow (5–19%), moderate (20–50%), fast (50–80%), or very fast (>80%). Such categories have been defined according to set criteria, namely, high metabolism (t1/2 value of <30 min), moderate metabolism (30 min <t1/2 value of <60 min), and low metabolism (t1/2 value of >60 min) (EMA, [2012], [2013]; FDA, [2020]).

[6] = tested on: PC12 cells; experiment: CellTox assay, survival of PC12 cells under serum deprivation; type: cell-based; details: compound 500 nM, 24 h, after 4 h serum starvation; NGF 100 ng/mL as control (Figure 9)
Experimental: (§2) PC12 cells were obtained from LGC Promochem and cultured under specified conditions. Cells were grown in DMEM medium (Thermo Fischer Scientific, cat# 10566016) containing 10% horse serum (Thermo Fischer Scientific, cat# 16050122), 5% fetal bovine serum (Thermo Fischer Scientific, cat# 10270106), 100 units/mL penicillin, and 0.1 mg/mL streptomycin (Thermo Fischer Scientific, cat# 15140122) at 5% CO2 and 37°C. Cells were used between passages 5 and 20.
CellTox assay (G8742, Promega, Leiden, Belgium) was used to assess the survival of PC12 cells under serum deprivation conditions. PC12 cells were plated in 96-well plates, starved from serum for 4 h, and subsequently treated with NGF (100 ng/mL) or compound (500 nM) for 24 h. CellTox assay reagents and Hoescht (1:10,000, H3570, Invitrogen, Massachusetts, USA) were then added to each well for 30 min, and then, cells were imaged with a Zeiss AXIO Vert A1 fluorescent microscope. CellTox positive cells were normalized to the total number of cells for each image.
Initially, we tested compounds ENT-A002, ENT-A007, ENT-A009, ENTA025, ENT-A026, ENT-A033, ENT-A034, ENT-A035, ENT-A036, ENT-A037, ENT-A046, ENT-A047, ENT-A055, and ENT-A056 for their ability to protect PC12 cells from serum deprivation-induced cell death as well as for their ability to activate TrkA downstream pro-survival signaling kinases Akt and Erk1/2 (Figures 9A–C). We opted to employ PC12 cells, which express receptors TrkA and p75 and have been routinely used for investigating NGF-TrkA signaling. PC12 cells were subjected to a period of nutrient deprivation (without fetal bovine serum and horse serum in their culture medium) for 4 h. Following this, NGF (100 ng/mL) or one of the compounds (500 nM or 1 μM) was administered and allowed to interact with the cells for 24 h. Following that, CellTox and Hoescht dyes were added and cells were imaged to assess cell death. Control cases involved cells cultured in full medium (serum), cells under starvation conditions (serum-free), and cells under starvation conditions treated with DMSO (SF+DMSO).

[7] = target: T3, TrkA (Rattus norvegicus, UniProt P35739); experiment: TrkA phosphorylation in PC12 cells (immunoprecipitation / Western blot); type: cell-based; details: compound 500 nM, 30 min, NGF 100 ng/mL as control
T3 construct: PC12 cells, which express receptors TrkA and p75; endogenous in cells; host or cells: PC12 cells
T3 sequence (P35739 33-799): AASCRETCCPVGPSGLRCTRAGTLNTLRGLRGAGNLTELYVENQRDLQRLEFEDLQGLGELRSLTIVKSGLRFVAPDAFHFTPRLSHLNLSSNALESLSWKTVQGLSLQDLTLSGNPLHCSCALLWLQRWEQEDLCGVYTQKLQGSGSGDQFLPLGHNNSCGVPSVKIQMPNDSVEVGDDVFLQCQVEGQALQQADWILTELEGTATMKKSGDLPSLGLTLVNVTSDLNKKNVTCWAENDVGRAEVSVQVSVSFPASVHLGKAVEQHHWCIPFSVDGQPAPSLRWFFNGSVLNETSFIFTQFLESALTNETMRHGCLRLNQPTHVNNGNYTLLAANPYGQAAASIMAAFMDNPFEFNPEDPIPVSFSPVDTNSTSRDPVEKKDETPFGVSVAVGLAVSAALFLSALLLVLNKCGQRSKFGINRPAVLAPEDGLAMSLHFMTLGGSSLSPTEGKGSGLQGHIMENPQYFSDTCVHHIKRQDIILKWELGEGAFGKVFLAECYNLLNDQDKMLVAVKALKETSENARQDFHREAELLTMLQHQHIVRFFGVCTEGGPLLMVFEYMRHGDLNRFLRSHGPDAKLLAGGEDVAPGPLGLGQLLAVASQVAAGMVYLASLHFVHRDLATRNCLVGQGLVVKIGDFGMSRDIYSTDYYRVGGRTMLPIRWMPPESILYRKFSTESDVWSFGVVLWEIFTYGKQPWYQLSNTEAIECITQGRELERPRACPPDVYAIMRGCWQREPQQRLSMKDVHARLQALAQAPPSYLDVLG
Experimental: as §2
For immunoprecipitation experiments, PC12 cells were used when they were at 70–80% confluent. Cells were starved from serum for 4 h and subsequently treated with 100 ng/mL NGF (Alomone Labs, cat# N-100) or 500 nM of each compound for 30 min. Cells were then lysed in Pierce™ IP Lysis Buffer (Thermo Fischer Scientific, cat# 87787) containing proteases (Sigma-Aldrich, cat# 539131) and phosphatase inhibitors (Millipore, cat# 524629). Lysates were then immunoprecipitated overnight at 4°C with TrkA antibody (1:100, Millipore, cat# 06-574) followed by 4 h incubation with protein G-plus agarose beads (Santa Cruz Biotechnology, cat# sc-2002). Beads were then collected, washed three times with lysis buffer, resuspended in SDS loading buffer, and subjected to Western blot against phosphorylated Tyrosine (1:1000, R&D systems, cat# BAM1676). […]

[8] = murine models; ref Bennett et al., 2016; Tsika et al., 2021; cited from earlier work

| SMILES | inhibition for CYP2C9 [1] | protection of NIH-3T3-TrkB cells from serum deprivation-induced cell death (CellTox) [2] | phosphorylation levels of the TrkB receptor [3] | Erk1/2 phosphorylation [4] | residual of time zero ([5]; pooled human liver microsomes 0.5 mg/mL, t = 60 min, NADPH) | parent structure loss (depletion) class ([5]; pooled human liver microsomes, 60 min) | protection of PC12 cells from serum deprivation-induced cell death (CellTox) [6] | TrkA phosphorylation [7] | elimination constant (Kel) [8] |
| --- | --- | --- | --- | --- | --- | --- | --- | --- | --- |
| CC12CCC(O)CC1=CCC1C2CCC2(C)C1CCC21CC=C(C=CC#N)CO1 [ENT-A009, (E)-(3S,17R)-3-hydroxy-3′,6′-dihydrospiro[5-androstene-17,2′-pyran]-5′-acrylonitrile] | moderate-to-strong inhibition | significantly reduce cell death levels compared to the serum-free control, comparable to the BDNF action | successfully increased phosphorylation levels of the TrkB receptor compared to the untreated control |  |  |  |  |  |  |
| CC12CCC(O)CC1=CCC1C2CCC2(C)C1CCC21CC=C(CCl)CO1 [ENT-A025, (3S,17R)-5′-(chloromethyl)-3′,6′-dihydrospiro[5-androstene-17,2′-pyran]-3-ol] |  | cannot protect NIH3T3-TrkB cells from serum deprivation |  | strongly induce TrkA and Erk1/2 phosphorylation, comparable to NGF action | 92% | slow (slow (5–19%)) | protect PC12 cells against serum deprivation-induced cell death | strongly induce TrkA and Erk1/2 phosphorylation, comparable to NGF action |  |
| CC12CCC(O)CC1=CCC1C2CCC2(C)C1CCC21OC1CO (stereo not shown) [BNN27] |  |  |  |  |  |  |  |  | 0.465 h⁻¹ |
